In US7138361B2, “Herbicidal heterocycles” (E. I. du Pont de Nemours and Company, priority 2000, dated 2006):

Tests used:
Format in all cases: in vivo
[1] = tested on: Surinam grass (Brachiaria decumbens); assay: Test B preemergence
How it was run: (§1)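 Ratings on a 0 to 100 visual scale (100 complete control) compare treated plants with controls 13 to 15 days after application. Treatments were pre- or postemergence sprays of compound in non-phytotoxic solvent with surfactant.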

[2] = tested on: barnyardgrass (Echinochloa crus-galli); assay: Test B preemergence
How it was run: as §1

[3] = tested on: cocklebur (Xanthium strumarium); assay: Test B preemergence
How it was run: as §1

corn (Zea mays) = assay: Test B preemergence
How it was run: as §1

[4] = tested on: crabgrass (Digitaria sanguinalis); assay: Test B preemergence
How it was run: as §1

[5] = tested on: giant foxtail (Setaria faberii); assay: Test B preemergence
How it was run: as §1

[6] = tested on: lambsquarters (Chenopodium album); assay: Test B preemergence
How it was run: as §1

[7] = tested on: morning glory (Ipomoea hederacea); assay: Test B preemergence
How it was run: as §1

[8] = tested on: pigweed (Amaranthus retroflexus); assay: Test B preemergence
How it was run: as §1

rice (Oryza saliva) = assay: Test B preemergence
How it was run: as §1

[9] = tested on: velvetleaf (Abutilon theophrasti); assay: Test B preemergence
How it was run: as §1

Sunflower [10] = assay: Test C preemergence; settings: scale 0 to 100, 0 no effect, 100 complete control
[11] = tested on: Surinam grass (Brachiaria decumbens); assay: Test C preemergence; settings: for Plant response rating (0 to 100), Surinam grass: visual evaluation after 12 to 14 days
How it was run: (§2)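 Response scores (0 no effect to 100 complete control) came from visual comparison with untreated controls 12 to 14 days after treatment. Preemergence application was made to seeded soil; postemergence, to plants at the 1- to 4-leaf stage.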

[12] = tested on: bermudagrass (Cynodon dactylon); assay: Test C preemergence; settings: for Plant response rating (0 to 100 where 0 is no effect and 100 is complete control), Bermudagrass: visual evaluation after 12 to 14 days
How it was run: as §2

[13] = tested on: cocklebur (Xanthium strumarium); assay: Test C preemergence; settings: for Plant response rating (0 to 100), Cocklebur: visual evaluation after 12 to 14 days
How it was run: as §2

[14] = tested on: common ragweed (Ambrosia elatior); assay: Test C preemergence; settings: for Plant response rating (0 to 100), Ragweed, Common: visual evaluation after 12 to 14 days
How it was run: as §2

[15] = tested on: crabgrass (Digitaria sanguinalis); assay: Test C preemergence; settings: for Plant response rating (0 to 100), Crabgrass: visual evaluation after 12 to 14 days
How it was run: as §2

[16] = tested on: giant foxtail (Setaria faberii); assay: Test C preemergence; settings: for Plant response rating (0 to 100), Foxtail, Giant: visual evaluation after 12 to 14 days
How it was run: as §2

[17] = tested on: goosegrass (Eleusine indica); assay: Test C preemergence; settings: for Plant response rating (0 to 100), Goosegrass: visual evaluation after 12 to 14 days
How it was run: as §2

[18] = tested on: morningglory (Ipomoea hederacea); assay: Test C preemergence; settings: for Plant response rating (0 to 100), Morningglory: visual evaluation after 12 to 14 days
How it was run: as §2

[19] = tested on: velvetleaf (Abutilon theophrasti); assay: Test C preemergence; settings: for Plant response rating (0 to 100), Velvetleaf: visual evaluation after 12 to 14 days
How it was run: as §2

Sunflower [20] = assay: Test C preemergence; settings: visual evaluation after 12 to 14 days
[21] = Preemergence, Rate 500 g/ha, scale 0 to 100, 0 no effect, 100 complete control
[22] = preemergence, Rate 125 g/ha, scale 0 to 100, 0 no effect, 100 complete control
[23] = Rate 62 g/ha, scale 0 to 100, 0 no effect, 100 complete control
[24] = preemergence, Rate 31 g/ha, scale 0 to 100
[25] = preemergence, Rate 125 g/ha, scale of 0 to 100 where 0 is no effect and 100 is complete control, 13 to 15 days
[26] = Rate 125 g/ha, scale 0 to 100, 0 no effect, 100 complete control
[27] = preemergence, Rate 62 g/ha, scale 0 to 100
[28] = preemergence, Rate 250 g/ha, scale 0 to 100, 0 no effect, 100 complete control

O=C1C(n2ccc(C3CCC3)n2)SCN1c1cccc(C(F)(F)F)c1 (centres unmarked) [Compound 37]
40: Plant response rating, Foxtail, Giant [5, 22]
70: Plant response rating, Bermudagrass [12, 23] | Plant response rating, Foxtail, Giant [16, 22]
90: Plant response rating (0 to 100), Surinam grass ([11]; preemergence, Rate 250 g/ha) | Plant response rating, Crabgrass [15, 23] | Plant response rating, Crabgrass [15, 22] | Plant response rating, Goosegrass [17, 23] | Plant response rating, Goosegrass [17, 22]
20: Plant response rating, Ragweed, Common [14, 22] | Plant response rating (0 to 100), Velvetleaf ([19]; preemergence, Rate 250 g/ha) | Plant response rating, Velvetleaf [19, 22]
60: Plant response rating, Bermudagrass [12, 24] | Plant response rating (0 to 100), Ragweed, Common ([14]; preemergence, Rate 250 g/ha) | Plant response rating, Foxtail, Giant [16, 23] | Plant response rating, Goosegrass [17, 24] | Plant response rating (0 to 100), Sunflower (Sunflower [20]; Rate 250 g/ha)
100: Plant response rating, Barnyardgrass [2, 21] | Plant response rating, Crabgrass [4, 21] | Plant response rating, Foxtail, Giant [5, 21] | Plant response rating, Lambsquarters [6, 21] | Plant response rating, Lambsquarters [6, 22] | Plant response rating, Pigweed [8, 21] | Plant response rating (0 to 100 where 0 is no effect and 100 is complete control), Bermudagrass ([12]; preemergence, Rate 250 g/ha) | Plant response rating (0 to 100), Crabgrass ([15]; preemergence, Rate 250 g/ha) | Plant response rating (0 to 100), Foxtail, Giant ([16]; preemergence, Rate 250 g/ha) | Plant response rating (0 to 100), Goosegrass ([17]; preemergence, Rate 250 g/ha)
50: Plant response rating, Foxtail, Giant [16, 24]
0: Plant response rating, Surinam grass [1, 21] | Plant response rating, Surinam grass [1, 22] | Plant response rating, Barnyardgrass [2, 22] | Plant response rating, Cocklebur [3, 22] | Plant response rating, Corn (corn (Zea mays); [21]) | Plant response rating, Corn (corn (Zea mays); [22]) | Plant response rating, Crabgrass [4, 22] | Plant response rating, Morningglory [7, 21] | Plant response rating, Rice (rice (Oryza saliva); [21]) | Plant response rating, Velvetleaf [9, 21] | Plant response rating, Sunflower (Sunflower [10]; Rate 62 g/ha) | Plant response rating, Surinam grass [11, 23] | Plant response rating, Surinam grass [11, 24] | Plant response rating, Surinam grass [11, 22] | Plant response rating, Cocklebur [13, 24] | Plant response rating (0 to 100), Cocklebur ([13]; preemergence, Rate 250 g/ha) | Plant response rating, Cocklebur [13, 22] | Plant response rating, Ragweed, Common [14, 23] | Plant response rating, Ragweed, Common [14, 24] | Plant response rating, Morningglory [18, 23] | Plant response rating, Morningglory [18, 24] | Plant response rating, Morningglory [18, 22] | Plant response rating, Velvetleaf [19, 23] | Plant response rating, Velvetleaf [19, 24]
80: Plant response rating, Bermudagrass [12, 22] | Plant response rating, Crabgrass [15, 24]
30: Plant response rating (0 to 100), Morningglory ([18]; preemergence, Rate 250 g/ha)

CCCC(C)c1ccn(C2CCN(c3cccc(C(F)(F)F)c3)C2=O)n1 (centres unmarked) [Compound 100]
70: Plant response rating, Foxtail, Giant [5, 21] | Plant response rating, Pigweed [8, 25]
100: Plant response rating, Barnyardgrass [2, 21] | Plant response rating, Crabgrass [4, 21] | Plant response rating, Lambsquarters [6, 21] | Plant response rating, Lambsquarters [6, 25] | Plant response rating, Pigweed [8, 21] | Plant response rating (0 to 100 where 0 is no effect and 100 is complete control), Bermudagrass ([12]; preemergence, Rate 500 g/ha) | Plant response rating, Bermudagrass [12, 28] | Plant response rating, Crabgrass [15, 26] | Plant response rating, Crabgrass [15, 27] | Plant response rating (0 to 100), Crabgrass ([15]; preemergence, Rate 500 g/ha) | Plant response rating, Crabgrass [15, 28] | Plant response rating (0 to 100), Foxtail, Giant ([16]; preemergence, Rate 500 g/ha) | Plant response rating (0 to 100), Goosegrass ([17]; preemergence, Rate 500 g/ha) | Plant response rating, Goosegrass [17, 28]
20: Plant response rating, Surinam grass [1, 21] | Plant response rating, Corn (corn (Zea mays); [21]) | Plant response rating, Rice (rice (Oryza saliva); [21])
80: Plant response rating, Goosegrass [17, 27]
40: Plant response rating, Foxtail, Giant [16, 28]
30: Plant response rating (0 to 100), Surinam grass ([11]; preemergence, Rate 500 g/ha)
90: Plant response rating, Bermudagrass [12, 26] | Plant response rating, Bermudagrass [12, 27] | Plant response rating, Foxtail, Giant [16, 27] | Plant response rating, Goosegrass [17, 26]
10: Plant response rating, Foxtail, Giant [16, 26]
0: Plant response rating, Surinam grass [1, 25] | Plant response rating, Barnyardgrass [2, 25] | Plant response rating, Cocklebur [3, 21] | Plant response rating, Cocklebur [3, 25] | Plant response rating, Corn (corn (Zea mays); [25]) | Plant response rating, Crabgrass [4, 25] | Plant response rating, Foxtail, Giant [5, 25] | Plant response rating, Morningglory [7, 21] | Plant response rating, Morningglory [7, 25] | Plant response rating, Rice (rice (Oryza saliva); [25]) | Plant response rating, Velvetleaf [9, 21] | Plant response rating, Velvetleaf [9, 25] | Plant response rating, Sunflower (Sunflower [10]; Rate 125 g/ha) | Plant response rating, Surinam grass [11, 26] | Plant response rating, Surinam grass [11, 27] | Plant response rating, Surinam grass [11, 28] | Plant response rating, Cocklebur [13, 27] | Plant response rating (0 to 100), Cocklebur ([13]; preemergence, Rate 500 g/ha) | Plant response rating, Cocklebur [13, 28] | Plant response rating, Ragweed, Common [14, 26] | Plant response rating, Ragweed, Common [14, 27] | Plant response rating (0 to 100), Ragweed, Common ([14]; preemergence, Rate 500 g/ha) | Plant response rating, Ragweed, Common [14, 28] | Plant response rating, Morningglory [18, 26] | Plant response rating, Morningglory [18, 27] | Plant response rating (0 to 100), Morningglory ([18]; preemergence, Rate 500 g/ha) | Plant response rating, Morningglory [18, 28] | Plant response rating, Velvetleaf [19, 26] | Plant response rating, Velvetleaf [19, 27] | Plant response rating (0 to 100), Velvetleaf ([19]; preemergence, Rate 500 g/ha) | Plant response rating, Velvetleaf [19, 28] | Plant response rating (0 to 100), Sunflower (Sunflower [20]; Rate 500 g/ha)

CCCC(C)c1ccn(C2CCN(c3cccc(OC)c3)C2=O)n1 (centres unmarked) [Compound 99]
80: Plant response rating, Goosegrass [17, 26] | Plant response rating, Goosegrass [17, 27]
10: Plant response rating, Foxtail, Giant [16, 27]
90: Plant response rating (0 to 100), Surinam grass ([11]; preemergence, Rate 500 g/ha) | Plant response rating, Bermudagrass [12, 26] | Plant response rating, Bermudagrass [12, 27] | Plant response rating, Goosegrass [17, 28]
100: Plant response rating, Barnyardgrass [2, 21] | Plant response rating, Crabgrass [4, 21] | Plant response rating, Foxtail, Giant [5, 21] | Plant response rating, Lambsquarters [6, 21] | Plant response rating, Lambsquarters [6, 25] | Plant response rating, Pigweed [8, 21] | Plant response rating (0 to 100 where 0 is no effect and 100 is complete control), Bermudagrass ([12]; preemergence, Rate 500 g/ha) | Plant response rating, Bermudagrass [12, 28] | Plant response rating, Crabgrass [15, 26] | Plant response rating, Crabgrass [15, 27] | Plant response rating (0 to 100), Crabgrass ([15]; preemergence, Rate 500 g/ha) | Plant response rating, Crabgrass [15, 28] | Plant response rating (0 to 100), Goosegrass ([17]; preemergence, Rate 500 g/ha)
0: Plant response rating, Surinam grass [1, 25] | Plant response rating, Barnyardgrass [2, 25] | Plant response rating, Cocklebur [3, 21] | Plant response rating, Cocklebur [3, 25] | Plant response rating, Corn (corn (Zea mays); [25]) | Plant response rating, Crabgrass [4, 25] | Plant response rating, Foxtail, Giant [5, 25] | Plant response rating, Morningglory [7, 21] | Plant response rating, Morningglory [7, 25] | Plant response rating, Pigweed [8, 25] | Plant response rating, Rice (rice (Oryza saliva); [25]) | Plant response rating, Velvetleaf [9, 21] | Plant response rating, Velvetleaf [9, 25] | Plant response rating, Sunflower (Sunflower [10]; Rate 125 g/ha) | Plant response rating, Surinam grass [11, 26] | Plant response rating, Surinam grass [11, 27] | Plant response rating, Surinam grass [11, 28] | Plant response rating, Cocklebur [13, 26] | Plant response rating, Cocklebur [13, 27] | Plant response rating (0 to 100), Cocklebur ([13]; preemergence, Rate 500 g/ha) | Plant response rating, Cocklebur [13, 28] | Plant response rating, Ragweed, Common [14, 26] | Plant response rating, Ragweed, Common [14, 27] | Plant response rating (0 to 100), Ragweed, Common ([14]; preemergence, Rate 500 g/ha) | Plant response rating, Ragweed, Common [14, 28] | Plant response rating, Morningglory [18, 27] | Plant response rating, Velvetleaf [19, 26] | Plant response rating, Velvetleaf [19, 27] | Plant response rating (0 to 100), Velvetleaf ([19]; preemergence, Rate 500 g/ha) | Plant response rating, Velvetleaf [19, 28] | Plant response rating (0 to 100), Sunflower (Sunflower [20]; Rate 500 g/ha)
20: Plant response rating, Surinam grass [1, 21] | Plant response rating, Rice (rice (Oryza saliva); [21]) | Plant response rating, Foxtail, Giant [16, 26] | Plant response rating, Foxtail, Giant [16, 28] | Plant response rating, Morningglory [18, 26] | Plant response rating (0 to 100), Morningglory ([18]; preemergence, Rate 500 g/ha) | Plant response rating, Morningglory [18, 28]
70: Plant response rating (0 to 100), Foxtail, Giant ([16]; preemergence, Rate 500 g/ha)
30: Plant response rating, Corn (corn (Zea mays); [21])
